The text below walks through data of patent US8377918B2 (ACC Therapeutics Inc, priority 2005, dated 2013).

The assay concerns PC-3 cells. The assay can be described thus: MTT cell proliferation assay, PC-3 prostate cancer cells. Conditions: 24 h. It counts as cell-based, human. The protocol: FIG. 8. […] Prostate cancer cells PC-3 and DU145 were seeded in 96-well plates at 1×10^4 cells/well. […] The cell proliferation was assayed by culturing the cells for 24 h, then adding 10 μl of MTT reagent with incubation for 2 h. The reaction was stopped by adding 100 μl of solubilization solution. The relative cell proliferation was obtained by the reading at 590 nm which was recorded in a spectrophotometer, and normalized to the value of control.
FIG. 9. […] A, Cisplatin-resistant ovarian cancer cell line A2780/CP70, and B, prostate cancer cells PC-3 were seeded in 96-well plates at 1×10^4 cells/well and incubated overnight.
FIG. 17. […] A, the prostate cancer cells PC-3 and DU145; B, colon cancer cells Colo-205 and HCT-116; C, lung cancer cells A549 and H460 cells were plated at 1×10^4 cells per well in a 96 well plate in 100 μl of media.
FIG. 18. […] A and B, the prostate cancer cells PC-3 and DU145; C, colon cancer cells Colo-205 and HCT-116; D, lung cancer cells A549 and H460 cells were plated at 1×10^4 cells per well in a 96 well plate in 100 μl of media. […] The cell proliferation was analyzed by MTT assay.
FIG. 19. […] A, prostate cancer cells PC-3; and B, DU145 cells were plated at 1×10^4 cells per well in a 96 well plate in 100 μl of media. […] Cell proliferation was examined by MTT assay.
FIG. 23. […] Cell proliferation was examined by MTT assay.
(In general: Tetrazolium assays rely on reduction of a dye to a coloured formazan, in cell work by metabolically active cells.)

Turning to `O=c1cc(-c2ccc(O)cc2)oc2cc(O)cc(O)c12` [apigenin, 4′,5,7,-trihydroxyflavone], the “effect on sensitivity to etoposide treatment” value (PC-3, 15 μM apigenin) was “increased the sensitivity”. Also, under “PC-3, apigenin alone”, the “effect on cell proliferation” value is “inhibited”.
